For test [1], the system named is leukocyte (neutrophil) infiltration into the peritoneum, wild-type C57BL/6J mice. Briefly: Mouse model of peritonitis, leukocyte infiltration, wild-type mice. As to conditions: 0.8 μM i.v. in 200 μL PBS, without (β15–44)2, 4 hours, n = 7. The class given is in vivo.
In test [2] the test system is transendothelial migration of leukocytes. Conditions: fibrinogen; cited from earlier work.

Regarding `CN1CCN(CCOc2cc(OC3CCOCC3)c3c(Nc4c(Cl)ccc5c4OCO5)ncnc3c2)CC1` [Saracatinib], in test [1], the “Infiltration of leukocytes, Fyn inhibitor alone” value is “no effect on infiltration of leukocytes”.

Consider fibrinogen, for which the “Transendothelial migration of leukocytes” value in test [2] was “promotes transendothelial migration of leukocytes”.

The values above are taken from article PMC7179994 (Thrombosis and haemostasis, 2019).
